# Source: patent US8371376B2, “Method for pre-treatment of subterranean sites adjacent to water injection wells” (E. I. du Pont de Nemours and Company, priority 2010, dated 2013)
# Assay: Titration of sand/amine/brine mixture with 1N HCl, amine concentration by GC
# Assay type: physicochemical
# Details: initial pH 8.4, before HCl addition; 380 ppm expected if all dissolved
# Procedure: Helium was used as the carrier gas.
# 38 milligrams (mg) of N N-Dimethyl-1-Dodecanamine (hereafter referred to as “the amine”) was added to 10.210 gr of Pentane. This solution was added to 10.1845 gr of specific sand layers (Oa and Ob) obtained from the Schrader Bluff formation of the Milne Point Unit of the Alaskan North slope. The oil content of the sand was first removed using a mixture of methanol and toluene (50/50, volume/volume) as solvent washes. The solvent mixture was subsequently evaporated off the core sand to produce clean, dry, flowable core sand. This sand was mixed with the amine and pentane solution to produce a slurry. This slurry was thoroughly mixed and the pentane was evaporated off leaving the amine on the sand (hereafter referred to as sand/amine mixture). 100 ml of brine #2 (Table 3) was added to the sand/amine mixture to create the sand/amine/brine mixture. […] The fact that the amine was not detected underlined its strong binding to the sand particles. […] The data underlines the remarkable efficiency of an acid at ionizing and removing the amine from the sand.
structure (smiles),measurement,value
"CCCCCCCCCCCCN(C)C [N-N-dimethyl-1-dodeanamine, N N-Dimethyl-1-Dodecanamine]",amine conc. in sand/amine/brine mixture,< 1 ppm
